Source: US7417045B2, “Heterocyclic substituted pyridine or phenyl compounds with CXCR3 antagonist activity” (Schering Corporation, priority 2005, dated 2008)
pIC50: −log10 of the molar value.

molecular target: T1, human CXCR3 (N-delta 4) (Homo sapiens, UniProt P49682); assay: Human CXCR3 (N-delta 4) Scintillation Proximity Assay (SPA), [125I] IP-10 binding; settings: IC50 rating; [125I] IP-10 displacement, Ba/F3-hCXCR3 (N-delta 4) membranes
T1 construct: CD8 leader (N); Flag tag; expressed in transfected cells; membranes
T1 sequence (P49682 5-368 limits assumed): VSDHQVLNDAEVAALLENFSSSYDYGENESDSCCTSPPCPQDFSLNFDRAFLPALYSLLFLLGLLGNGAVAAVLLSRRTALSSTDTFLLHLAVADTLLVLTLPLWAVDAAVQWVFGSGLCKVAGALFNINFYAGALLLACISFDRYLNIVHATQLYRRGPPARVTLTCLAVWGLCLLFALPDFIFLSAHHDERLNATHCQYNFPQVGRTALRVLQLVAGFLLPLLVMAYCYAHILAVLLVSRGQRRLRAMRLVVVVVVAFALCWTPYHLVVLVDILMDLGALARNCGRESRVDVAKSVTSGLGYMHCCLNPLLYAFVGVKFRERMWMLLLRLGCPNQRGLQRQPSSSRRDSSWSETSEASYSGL
From the text: The inventive compounds can readily be evaluated to determine activity at The CXCR3 receptors by known methods, such as, for example, Development of Human CXCR3 (N-delta 4) Binding Assay.
Cloning and Expression of Human CXCR3 (N-Delta 4):
The DNA encoding human CXCR3 was cloned by PCR using human genomic DNA (Promega, Madison, Wis.) as a template. The PCR primers were designed based on the published sequence of human orphan receptor GPR9 (1) with incorporated restriction sites, a Kozak consensus sequence, CD8 leader and Flag tag. The PCR product was subcloned into the mammalian expression vector pME18Sneo, a derivative of the SR-alpha expression vector (designated as pME18Sneo-hCXCR3 (N-delta 4).
IL-3-dependent mouse pro-B cells Ba/F3 were transfected by electroporation in 0.4 ml Dulbecco's PBS containing 4×10^6 cells with 20 μg of pME18Sneo-hCXCR3 (N-delta 4) plasmid DNA. Cells were pulsed at 400 Volts, 100 OHMs, 960 μFd. The transfected cells were under selection with 1 mg/ml G418 (Life Technologies, Gaithersburg, Md.). G418-resistant Ba/F3 clones were screened for CXCR3 expression by specific binding of [^125I] IP-10 (NEN Life Science Products, Boston, Mass.).
Preparation of Ba/F3-hCXCR3 (N-Delta 4) Membranes
Ba/F3 cells expressing human CXCR3 (N-delta 4) were pelleted and resuspended in the lysis buffer containing 10 mM HEPES, pH 7.5 and Complete® protease inhibitors (1 tablet per 100 ml) (Boehringer Mannheim, Indianapolis, Ind.) at a cell density of 20×10^6 cells per ml. After 5 minutes incubation on ice, cells were transferred to 4639 cell disruption bomb (Parr Instrument, Moline, Ill.) and applied with 1,500 psi of nitrogen for 30 minutes on ice. Large cellular debris was removed by centrifugation at 1,000× g. Cell membrane in the supernatant was sedimented at 100,000× g. The membrane was resuspended in the lysis buffer supplemented with 10% sucrose and stored at −80° C. Total protein concentration of the membrane was determined by BCA method from Pierce (Rockford, Ill.).
Human CXCR3 (N-Delta 4) Scintillation Proximity Assay (SPA)
For each assay point, 2 μg of membrane was preincubated for 1 hr with 300 μg wheat germ agglutinin (WGA) coated SPA beads (Amersham, Arlington Heights, Ill.) in the binding buffer (50 mM HEPES, 1 mM CaCl2, 5 mM MgCl2, 125 mM NaCl, 0.002% NaN3, 1.0% BSA) at room temperature. The beads were spun down, washed once, resuspended in the binding buffer and transferred to a 96-well Isoplate (Wallac, Gaithersburg, Md.). 25 pM of [^125I] IP-10 with tested compounds in a series of titration were added to start the reaction. After 3 hr reaction at room temperature, the amount of [^125I] IP-10 bound to the SPA beads was determined with a Wallac 1450 Microbeta counter.

Structure (SMILES)	pIC50
CC[C@H]1CN(c2ncc(-c3ncc[nH]3)cc2Cl)CCN1C1CCN(C(=O)c2ccc(C#CC(C)(C)NS(C)(=O)=O)cc2)CC1 [Compound 171]	< 7.00
CC[C@H]1CN(c2ncc(-c3ncc[nH]3)cc2Cl)CCN1C1CCN(C(=O)c2ccc(C#CC(C)(C)NS(N)(=O)=O)cc2)CC1 [Compound 168]	< 7.00
CC[C@H]1CN(c2ncc(-c3ncc[nH]3)cc2Cl)CCN1C1CCN(CC(=O)c2ccc(Cl)cc2)CC1 [Compound 164]	< 7.00
CC[C@H]1CN(c2ncc(-c3ncc[nH]3)cc2Cl)CCN1C1CCN([C@H](C(=O)NC2CC2)c2ccc(Cl)cc2)CC1 [Compound 149]	< 7.00
CC[C@H]1CN(c2ncc(-c3ncc[nH]3)cc2Cl)CCN1C1(C)CCN(Cc2ccc(Cl)cc2C(=O)NC)CC1 [Compound 130]	7.00 to 7.60
CC[C@H]1CN(c2ncc(-c3ncc[nH]3)cc2Cl)CCN1C1CCN(Cc2ccc(C#CC(C)(C)NS(=O)(=O)NC(=O)OC(C)(C)C)cc2)CC1 [Compound 143]	< 7.00
C[C@H]1CN(c2ncc(-c3nc4ccccc4[nH]3)cc2Cl)CCN1C1CCN(Cc2ccc(Cl)cc2)CC1 [Compound 110]	7.00 to 7.60
CC[C@H]1CN(c2ncc(-c3nnc(C)o3)cc2Cl)CCN1C1CCN(C(=O)c2ccc(Br)cc2)CC1 [Compound 120]	7.00 to 7.60
CC[C@H]1CN(c2ncc(C3=NCCN3)cc2Cl)CCN1C1CCN(Cc2ccc(C#CC(C)(C)NS(=O)(=O)NC(=O)OC(C)(C)C)cc2)CC1 [Compound 147]	< 7.00
CC[C@H]1CN(c2ncc(-c3ncc[nH]3)cc2Cl)CCN1C1CCN([C@H](C(=O)NCC(F)(F)F)c2ccc(Cl)cc2)CC1 [Compound 155]	< 7.00
CC[C@H]1CN(c2ncc(-c3ncc[nH]3)cc2Cl)CCN1C1CCN(C(=O)c2ccc(-n3c(C)ccc3C)cc2)CC1 [Compound 136]	< 7.00
CC[C@H]1CN(c2ncc(-c3ncc[nH]3)cc2Cl)CCN1C1CCN([C@H](C(=O)N(C)C)c2ccc(Cl)cc2)CC1 [Compound 150]	< 7.00
CC[C@H]1CN(c2ncc(-c3ncc[nH]3)cc2Cl)CCN1C1CCN(Cc2ccc3[nH]ccc3c2)CC1 [Compound 138]	< 7.00
CC[C@H]1CN(c2ncc(-c3ncc[nH]3)cc2Cl)CCN1C1CCN([C@H](C(=O)NCC2CC2)c2ccc(Cl)cc2)CC1 [Compound 159]	< 7.00
CC[C@H]1CN(c2ncc(C3=NCCN3)cc2Cl)CCN1C1CCN(C(=O)c2ccc(C#CC(C)(C)O)cc2)CC1 [Compound 104]	7.00 to 7.60
CC[C@H]1CN(c2ncc(-c3nnc[nH]3)cc2Cl)CCN1C1CCN(Cc2ccc(Cl)cc2F)CC1 [Compound 69]	> 7.60
CC[C@H]1CN(c2c(F)cc(-c3ncc[nH]3)cc2C(F)(F)F)CCN1C1CCN(Cc2ccc(Cl)cc2F)CC1 [Compound 59]	> 7.60
CC[C@H]1CN(c2ncc(-c3ncc[nH]3)cc2Cl)CCN1C1CCN(Cc2ccc(C(=O)OC)cc2)CC1 [Compound 16]	> 7.60
CC[C@H]1CN(c2ncc(C3=NCCN3)cc2Cl)CCN1C1CCN(C(=O)c2ccc(Br)cc2)CC1 [Compound 56]	> 7.60
CC[C@H]1CN(c2ncc(-c3ncc[nH]3)cc2Cl)CCN1C1CCN([C@@H](C(=O)NCC(F)(F)F)c2ccc(Cl)cc2)CC1 [Compound 99]	> 7.60
CC[C@H]1CN(c2ccc(-c3ncc[nH]3)cc2Br)CCN1C1CCN(Cc2ccc(Cl)cc2F)CC1 [Compound 20]	> 7.60
CC[C@H]1CN(c2ncc(-c3cnc(N)s3)cc2Cl)CCN1C1CCN(C(=O)c2ccc(Cl)cc2)CC1 [Compound 167]	< 7.00
CC[C@H]1CN(c2ncc(-c3ncc[nH]3)cc2Cl)CCN1C1CCN([C@H](C(N)=O)c2ccc(Cl)cc2)CC1 [Compound 89]	> 7.60
CC[C@H]1CN(c2ncc(-c3ncc[nH]3)cc2Cl)CCN1C1CCN(C(=O)c2ccc(-n3cncn3)nc2)CC1 [Compound 112]	7.00 to 7.60
CC[C@H]1CN(c2ncc(-c3nccn3CCC(=O)c3ccc(Cl)cc3)cc2Cl)CCN1C1CCN(CCC(=O)c2ccc(Cl)cc2)CC1 [Compound 165]	< 7.00

Next, values leading:

pIC50	Structure (SMILES)
> 7.60	CC[C@H]1CN(c2ncc(C3=NCCN3)cc2Cl)CCN1C1CCN(C(=O)c2ccc(C#N)cc2)CC1 [Compound 87]
> 7.60	CC[C@H]1CN(c2ncc(C3=NCCN3)cc2Cl)CCN1C1CCN(C(=O)c2ccc(Cl)cc2I)CC1 [Compound 85]
> 7.60	CC[C@H]1CN(c2ncc(-c3ncc[nH]3)cc2Cl)CCN1C1CCN([C@H](C)c2ccc(Cl)cc2)CC1 [Compound 5]
> 7.60	CC[C@H]1CN(c2ncc(-c3nnco3)cc2Cl)CCN1C1CCN(Cc2ccc(Cl)cc2F)CC1 [Compound 27]
> 7.60	CC[C@H]1CN(c2ncc(C3=NCCN3)cc2Cl)CCN1C1CCN(Cc2ccc(Cl)cc2C#N)CC1 [Compound 51]
> 7.60	CC[C@H]1CN(c2ncc(-c3ncc[nH]3)cc2Cl)CCN1C1CCN([C@@H](C(=O)NC2CC2)c2ccc(Cl)cc2)CC1 [Compound 36]
> 7.60	CC[C@H]1CN(c2ncc(-c3ncc[nH]3)cc2Cl)CCN1C1CCN(Cc2ccc(Cl)cc2C(C)(C)O)CC1 [Compound 31]
> 7.60	CC[C@H]1CN(c2ncc(-c3ncc[nH]3)cc2Cl)CCN1C1CCN(C(=O)c2ccc(C#CCOC)cc2)CC1 [Compound 92]
> 7.60	CC[C@H]1CN(c2ncc(-c3ncc[nH]3)cc2Cl)CCN1C1CCN(Cc2ccc(-n3cccn3)cc2)CC1 [Compound 19]
> 7.60	CC[C@H]1CN(c2ncc(-c3ncc[nH]3)cc2Cl)CCN1C1CCN([C@@H](C)c2ccc(Cl)cc2)CC1 [Compound 30]
> 7.60	CC[C@H]1CN(c2ncc(-c3ncc[nH]3)cc2Cl)CCN1C1CCN(Cc2ccc(Cl)cc2C(=O)NC)CC1 [Compound 53]
> 7.60	CC[C@H]1CN(c2ncc(-c3ncc[nH]3)cc2Cl)CCN1C1CCN(C(=O)c2ccc(Cl)cc2C#N)CC1 [Compound 62]
> 7.60	CC[C@H]1CN(c2ncc(-c3ncc[nH]3)cc2Cl)CCN1C1CCN(Cc2ccc(Cl)cc2-c2n[nH]c(=O)o2)CC1 [Compound 57]
> 7.60	CC[C@H]1CN(c2ncc(-c3ncc[nH]3)cc2Cl)CCN1C1CCN(Cc2ccc(C#CC(C)(C)O)cc2)CC1 [Compound 23]
> 7.60	CC[C@H]1CN(c2ncc(C3=NCCN3)cc2Cl)CCN1C1CCN(Cc2ccc(OC(F)(F)F)cc2)CC1 [Compound 12]
> 7.60	CC[C@H]1CN(c2ncc(-c3ncc[nH]3)cc2Cl)CCN1C1CCN(Cc2ccc(OC(F)(F)F)cc2)CC1 [Compound 13]
> 7.60	CC[C@H]1CN(c2ncc(-c3ncc[nH]3)cc2Cl)CCN1C1CCN(C(CO)c2ccc(Cl)cc2)CC1 (stereo partly drawn) [Compound 18]
> 7.60	CC[C@H]1CN(c2ncc(-c3ncc[nH]3)cc2Cl)CCN1C1CCN(C(=O)c2ccc(Cl)cc2I)CC1 [Compound 86]
> 7.60	CC[C@H]1CN(c2ncc(-c3ncc[nH]3)cc2Cl)CCN1C1CCN(CCC(=O)c2ccc(Cl)cc2)CC1 [Compound 95]
> 7.60	CC[C@H]1CN(c2ncc(C3=NCCN3)cc2Cl)CCN1C1CCN(Cc2ccc(Cl)cc2C(=O)OC)CC1 [Compound 61]
> 7.60	CC[C@H]1CN(c2ncc(C3=NCCN3)cc2Cl)CCN1C1CCN(Cc2ccc(C#N)cc2)CC1 [Compound 29]
> 7.60	CC[C@H]1CN(c2ncc(-c3nnc(C(C)(C)O)o3)cc2Cl)CCN1C1CCN(Cc2ccc(Cl)cc2F)CC1 [Compound 98]
> 7.60	CC[C@H]1CN(c2ncc(-c3ncc[nH]3)cc2Cl)CCN1C1CCN(CCCC(=O)c2ccc(Cl)cc2)CC1 [Compound 83]
